# Where two headings read alike, the source gives them in different places.
# Tests used:
# A3 adenosine receptor [1] = target: T1, A3 adenosine receptor (Rattus norvegicus, UniProt P28647); test: biochemical; format: binding; settings: for inhibition at 1000 µM: read-out: inhibition of [125I]APNEA binding; for inhibition at 100 µM: read-out: inhibition of specific [125I]APNEA binding; for pharmacological profile of inhibition of [125I]APNEA binding: rank order; for IC50: 0.5 nM [125I]APNEA
# T1 sequence (P28647 1-320): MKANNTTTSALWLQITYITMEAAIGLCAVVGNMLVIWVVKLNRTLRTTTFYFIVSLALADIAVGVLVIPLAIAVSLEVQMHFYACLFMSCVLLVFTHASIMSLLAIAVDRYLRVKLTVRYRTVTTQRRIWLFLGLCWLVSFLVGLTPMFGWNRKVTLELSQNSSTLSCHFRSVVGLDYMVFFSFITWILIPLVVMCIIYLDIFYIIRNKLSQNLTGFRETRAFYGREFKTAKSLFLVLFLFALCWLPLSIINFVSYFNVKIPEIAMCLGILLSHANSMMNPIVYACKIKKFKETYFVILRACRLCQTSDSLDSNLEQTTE
# Method: FIGS. 4A and 4B illustrates competitive binding assays using stably transfected CHO cell membrane preparations.
# Cell membranes were prepared as follows. COS-7 cells (transient expressors) were harvested 48 hrs after transfection, whereas CHO cells (stable expressors) were grown to confluence in 150 mm plates. Cells were washed twice with ice-cold HOB buffer [15 mM Tris-HCl (pH 7.4), 5 mM MgCl2, 1 mM EDTA] and scraped off plates with a rubber policeman. Cells were then collected by centrifugation at 1,200 rpm (xx g), resuspended in HOB buffer, transferred to a Dounce homogenizer on ice, and homogenized for 20 sec with a CorTarge homogenizer (Eberbach Inc., Ann Arbor, Mich.) at the #3 speed setting. The homogenate was then centrifuged at 2,000 rpm (xx g) for 10 min at 4° C. The supernatant was saved and the pellet resuspended in HOB buffer and subjected to a second round of homogenation. The second homogenate was centrifuged at 2000 rpm (xx g) for 10 min and the pellet was discarded. Supernatants were pooled and centrifuged at 34,000 rpm (xx g) for 45 min. These crude membrane pellets were resuspended in TEM buffer [50 mM Tris-HCl (pH 7.4), 5 mM MgCl2, 1 mM EDTA]. Adenosine deaminase (Sigma, St Louis, Mo.) was added to the membrane suspensions to a concentration of 2 Units/ml and incubated at 37° C. for 30 min. The membrane suspension was subsequently recentrifuged at 34,000 rpm (xx g) for 45 min. The resulting pellet was resuspended in TEM buffer at a protein concentration of about 1 mg/ml and stored in small aliquots at -70° C. The protein concentration was measured according to the method of Lowry et al. (1954, J. Biol. Chem. 207: 1-XXX) using bovine serum albumin as a standard.
# Radioligand binding assays were carried out in duplicate in 500 μl of a solution containing (at final concentrations) 50 mM Tris-HCl (pH 7.4), 5 mM MgCl2, 1 mM EDTA, 0.025 % ascorbic acid, radioligands, and appropriate drugs. […] ([aH]XAC), [^3 H]-labeled 2-[4-(2-[(4-aminophenyl)methylcarbobylamino]ethylaminocarbonyl)ethyl)phenyl]ethylamino-5'-N-ethylcarboxamidoadenosine ([^3 H]PAPA-APEC), and [^3 H]-labeled [2-(4-(2-carboxyethyl)phenylethyamino)5'-N-ethylcarboxamidoadenosine ([^3 H]CGS21680). Receptor binding was initiated by the addition of membrane preparations in an amount equivalent to 20-100 μg protein, and carried out at 37° C. for 1 hr. Nonspecific binding was determined in the presence of 10 μM R-N^6 -phenyl-2-propyladenosine (R-PIA). After incubation, samples were filtered through glass fiber filters (Schleicher and Schuell #32) and washed three times with 4 ml ice-cold 10 mM TrisoHCl (pH 7.4). Radioactivity retained on the filters were counted using a Beckman LS6800 scintillation counter (Beckman Instruments, Palo Alto, Calif.). […] A LIGAND computer program was used for data analysis and curve fitting (Munson & Rodband, 1980, Anal. Biochem. 107: 220-225).
# The A3 receptor was then characterized using competition assays between [^125 I]APNEA A3 receptor binding versus a series of other adenosine receptor ligands. Labeled APNEA was present in these assays at 0.5 nM; unlabled competitors were present at varying concentrations as shown in FIG. 4A.
# A3 adenosine receptor [2] = target: T1, A3 adenosine receptor; test: cell-based; format: cell-based; settings: for effect on forskolin-stimulated cAMP: 100 μM ATP or ADP; for inhibitory effect of R-PIA and NECA on forskolin-stimulated cAMP production after pertussis toxin pretreatment: 100 ng/ml pertussis toxin, 18 hours
# Method: The concentrations of adenosine agonists used are 100 nM and the concentration of forskolin is 1 μM. Values are obtained from triplicate plates and shown as mean ±S.E.
# The cell were not or pretreated with 100 ng/ml pertussis toxin for 18 hours. The concentration of forskolin and adenosine agonists used are as in FIG. 5.
# It is known that the A 1 adenosine receptor inhibits adenylate cyclase activity and the A2 adenosine receptor stimulates adenylate cyclase respectively (Stiles, ibid.; Williams, ibid.).
# Cells were grown to about 80% confluence in 150 mm dishes, washed twice with Ca^++ and Mg^++ -free PBS buffer and detached from plates with PBS buffer containing 0.02% EDTA. Cells were collected by centrifugation at 800 rpm (xx g) for 10 min at 4° C. and resuspended in an appropriate volume of KRH buffer [140 mM NaCl, 5 mM KCl , 2 mM CaCl2, 1.2 mM MgSO4, 1.2 mM KH2 PO4, 6 mM glucose, 25 mM Hepes-NaOH (pH 7.4)]. The cells were washed once with KRH buffer and resuspended in KRH buffer at a concentration of 10^7 cells/ml. Each of 100 μl aliquots of this cell suspension were added to a glass tube containing 100 μl KRH+200 μM Ro 20-1724 and incubated at 37° C. for 10 min. Prewarmed 200 μl KRH containing 200 μm Ro 20-1724 and test drugs were then added to the cells and mixed. After incubation at 37° C. for 20 min, 400 μl 10.5 mM NaAc (pH 6.2) were added and the glass tubes transferred to a boiling water bath. The incubated cell suspension were boiled for 20 min, and the tubes were then cooled to room temperature and centrifuged at 3000 rpm (xx g) for 15 min.
# For experiments using pertussis toxin pretreatment, aseptic pertussis toxin (Sigma Chemical Co., St. Louis, Mo.) was dissolved in sterile water and added to the medium to a final concentration of 100 ng/ml. Toxin treatment was maintained for approximately 18 hours. The dishes were rinsed once with media immediately prior to the addition of adenosine receptor ligands and processed as described above.
compound,measurement,setting,value
Nc1ncnc2c1ncn2[C@H]1C[C@H](O)[C@@H](CO)O1 [2-deoxyadenosine],inhibition at 1000 µM,A3 adenosine receptor [1]; 1 mM,< 20%
CSc1nc(N)c2ncn([C@@H]3O[C@H](COP(=O)(O)O)[C@@H](O)[C@H]3O)c2n1 [2-methyl-S-AMP],inhibition of [125I]APNEA binding,A3 adenosine receptor [1]; 1 mM,< 20%
Nc1ncnc2c1ncn2[C@@H]1O[C@H](COP(=O)(O)OP(=O)(O)O)[C@@H](O)[C@H]1O [ADP],inhibition at 100 µM,A3 adenosine receptor [1]; 100 μM,25%
same,pharmacological profile of inhibition of [125I]APNEA binding,A3 adenosine receptor [1],R-PIA=NECA>S-PIA>adenosine>ATP=ADP
same,effect on forskolin-stimulated cAMP,A3 adenosine receptor [2],had no effect
Nc1ncnc2c1ncn2[C@@H]1O[C@H](COP(=O)(O)OP(=O)(O)CP(=O)(O)O)[C@@H](O)[C@H]1O [AMP-PCP],inhibition at 1000 µM,A3 adenosine receptor [1],< 20%
Nc1ncnc2c1ncn2[C@@H]1O[C@H](COP(=O)(O)OP(=O)(O)OP(=O)(O)O)[C@@H](O)[C@H]1O [ATP],pharmacological profile of inhibition of [125I]APNEA binding,A3 adenosine receptor [1],R-PIA=NECA>S-PIA>adenosine>ATP=ADP
same,inhibition at 100 µM,A3 adenosine receptor [1],50%
same,effect on forskolin-stimulated cAMP,A3 adenosine receptor [2],had no effect
Nc1ncnc2c1ncn2[C@@H]1O[C@H](COP(=O)(O)OP(=O)(O)NP(=O)(O)O)[C@@H](O)[C@H]1O [App(NH)p],inhibition at 1000 µM,A3 adenosine receptor [1]; 1 mM,< 20%
Nc1nc2c(ncn2[C@@H]2O[C@H](COP(=O)(O)OP(=O)(O)NP(=O)(O)O)[C@@H](O)[C@H]2O)c(=O)[nH]1 [Gpp(NH)p],competition for labeled APNEA binding,"A3 adenosine receptor [1]; Gpp(NH)p, varying concentrations",60-70%
same,IC50,A3 adenosine receptor [1]; Table I and text,1000 nM
CC(C)Cn1c(=O)n(C)c(=O)c2[nH]cnc21 [IBMX],ability to compete with [125I]APNEA for A3 receptor binding,A3 adenosine receptor [1]; 100 μM,none of the methylxanthines tested were capable of competing with labeled APNEA
C[C@H](Cc1ccccc1)Nc1ncnc2c1ncn2[C@@H]1O[C@H](CO)[C@@H](O)[C@H]1O [R-PIA],IC50,A3 adenosine receptor [1]; Table I,63 ± 19 nM
same,pharmacological profile of inhibition of [125I]APNEA binding,A3 adenosine receptor [1],R-PIA=NECA>S-PIA>adenosine>ATP=ADP
same,inhibitory effect of R-PIA and NECA on forskolin-stimulated cAMP production after pertussis toxin pretreatment,A3 adenosine receptor [2],almost completely abolished
same,inhibition of forskolin-stimulated cAMP accumulation,"A3 adenosine receptor [2]; 1 μM forskolin, 100 nM agonist",20-50%
same,EC50,A3 adenosine receptor [2]; Table II,18 ± 5.6 nM
C[C@@H](Cc1ccccc1)Nc1ncnc2c1ncn2[C@@H]1O[C@H](CO)[C@@H](O)[C@H]1O [S-PIA],IC50,A3 adenosine receptor [1]; Table I,1140 ± 490 nM
same,pharmacological profile of inhibition of [125I]APNEA binding,A3 adenosine receptor [1],R-PIA=NECA>S-PIA>adenosine>ATP=ADP
O=c1ccn([C@@H]2O[C@H](COP(=O)(O)OP(=O)(O)OP(=O)(O)O)[C@@H](O)[C@H]2O)c(=O)[nH]1 [UTP],inhibition at 1000 µM,A3 adenosine receptor [1]; 1 mM,< 20%
C[N+](C)(C)CCOC(N)=O [carbacol],ability to compete with [125I]APNEA for A3 receptor binding,A3 adenosine receptor [1]; 100 μM,failed to compete with labeled APNEA
NCCc1ccc(O)c(O)c1 [dopamine],ability to compete with [125I]APNEA for A3 receptor binding,A3 adenosine receptor [1]; 100 μM,failed to compete with labeled APNEA
CC(C)NCC(O)c1ccc(O)c(O)c1 (stereo not drawn) [isoproterenol],ability to compete with [125I]APNEA for A3 receptor binding,A3 adenosine receptor [1]; 100 μM,failed to compete with labeled APNEA
Cc1ccc(N(CC2=NCCN2)c2cccc(O)c2)cc1 [phentoamine],ability to compete with [125I]APNEA for A3 receptor binding,A3 adenosine receptor [1]; 100 μM,failed to compete with labeled APNEA
NCCc1c[nH]c2ccc(O)cc12 [serotonin],ability to compete with [125I]APNEA for A3 receptor binding,A3 adenosine receptor [1]; 100 μM,failed to compete with labeled APNEA
pertussis toxin,inhibitory effect of R-PIA and NECA on forskolin-stimulated cAMP production after pertussis toxin pretreatment,A3 adenosine receptor [2],almost completely abolished

# — patent US5441883A, “A3 adenosine receptor, DNA, and uses” (priority 1993, dated 1995)
